For one series, the target named is T1, rA1 adenosine receptor (Rattus norvegicus, UniProt P25099).
T1 sequence (P25099 1-326): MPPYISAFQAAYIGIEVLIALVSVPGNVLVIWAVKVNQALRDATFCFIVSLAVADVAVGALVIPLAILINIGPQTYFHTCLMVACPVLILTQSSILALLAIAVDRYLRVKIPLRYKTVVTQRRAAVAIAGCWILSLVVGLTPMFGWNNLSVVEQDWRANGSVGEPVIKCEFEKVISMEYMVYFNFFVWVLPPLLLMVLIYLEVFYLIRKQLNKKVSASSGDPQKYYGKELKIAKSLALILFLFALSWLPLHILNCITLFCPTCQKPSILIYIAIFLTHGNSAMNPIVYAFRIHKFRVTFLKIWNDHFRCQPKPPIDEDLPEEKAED
Briefly: Adenosine receptor selectivity, rA1. The conditions noted are these: read-out: rA1 Ki ± SEM. Type of series: binding. The text has this:
(§1) The selectivity of these substances at various adenosine receptors is illustrated as follows: […]

For a further series, the target named is rA2A adenosine receptor (Rattus norvegicus, UniProt P30543). Description: Adenosine receptor selectivity, rA2A. Type of series: binding. To be noted: read-out: rA2A Ki ± SEM.
Chain of rA2A adenosine receptor (P30543 whole entry): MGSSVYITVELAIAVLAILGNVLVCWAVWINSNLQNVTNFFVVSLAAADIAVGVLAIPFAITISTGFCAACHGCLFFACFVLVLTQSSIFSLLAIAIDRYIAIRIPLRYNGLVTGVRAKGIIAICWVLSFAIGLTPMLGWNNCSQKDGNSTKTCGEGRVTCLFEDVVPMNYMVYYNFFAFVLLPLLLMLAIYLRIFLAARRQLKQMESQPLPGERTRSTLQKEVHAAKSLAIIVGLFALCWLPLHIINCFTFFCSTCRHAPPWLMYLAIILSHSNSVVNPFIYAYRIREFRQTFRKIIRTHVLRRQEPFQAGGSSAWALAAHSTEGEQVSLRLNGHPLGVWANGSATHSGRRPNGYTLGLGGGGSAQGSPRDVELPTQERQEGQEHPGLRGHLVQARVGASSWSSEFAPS
Excerpt: as §1

A further series deals with T2, hA2B adenosine receptor (Homo sapiens, UniProt P29275).
T2 sequence (P29275 1-332): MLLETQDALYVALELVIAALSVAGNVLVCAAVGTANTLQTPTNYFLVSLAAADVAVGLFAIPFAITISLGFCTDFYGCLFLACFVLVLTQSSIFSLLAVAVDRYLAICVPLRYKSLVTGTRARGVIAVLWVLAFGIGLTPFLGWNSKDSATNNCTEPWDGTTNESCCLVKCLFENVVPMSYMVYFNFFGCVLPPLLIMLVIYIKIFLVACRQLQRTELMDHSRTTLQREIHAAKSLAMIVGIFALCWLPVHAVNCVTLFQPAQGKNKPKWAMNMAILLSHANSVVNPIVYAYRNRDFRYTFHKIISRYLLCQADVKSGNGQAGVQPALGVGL
Briefly: Adenosine receptor selectivity, hA2B. In kind it is binding. The conditions noted are these: read-out: hA2B IC50 ± SEM.
Excerpt: as §1

For a further series, the target named is T3, hA3 adenosine receptor (Homo sapiens, UniProt P0DMS8).
T3 sequence (P0DMS8 1-318): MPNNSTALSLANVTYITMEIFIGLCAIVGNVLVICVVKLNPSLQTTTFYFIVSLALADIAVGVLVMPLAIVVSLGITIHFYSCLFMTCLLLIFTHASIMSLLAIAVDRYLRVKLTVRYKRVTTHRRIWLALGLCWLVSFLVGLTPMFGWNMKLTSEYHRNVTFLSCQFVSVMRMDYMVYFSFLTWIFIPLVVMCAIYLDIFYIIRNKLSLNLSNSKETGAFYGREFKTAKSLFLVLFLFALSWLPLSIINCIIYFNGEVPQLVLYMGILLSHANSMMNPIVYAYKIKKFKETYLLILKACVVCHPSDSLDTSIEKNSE
Briefly: Adenosine receptor selectivity, hA3. To be noted: read-out: hA3 Ki ± SEM. Type of series: binding.
Excerpt: as §1

Series [1] relates to collagen-induced arthritis. Description: Collagen induced arthritis (CIA) in mice. In kind it is in vivo. The conditions noted are these: DBA/1 mice, 30 mg/kg i.p. once daily. The protocol:
Control mice were treated with saline (circles). Data are the mean arthritis paw thickness, assessed using a calliper in the days following primary immunization and boost.
After the end of treatment, the inhibitory effect was maintained for a period of 2-3 days after which signs began to re-emerge.
Treatment of rheumatoid arthritis using Collagen Induced Arthritis as a model Collagen-induced arthritis studies. CIA in DBA/1 mice was induced by injecting DBA/1 mice with bovine type Il collagen (CII) emulsified in CFA1 followed by boosting 21 days later with CII emulsified in incomplete Freund's adjuvant (IFA). […] 30 mg/kg was delivered by i.p. injection once daily, starting following the development of clinical arthritis in treatment experiments. Animals were monitored daily following boost of arthritis, following the emergence of clear signs of disease observed on two consecutive days, animals were allocated randomly to treatment groups. Signs monitored included weight loss, paw thickness, and observed clinical score. Scoring is according to the presence of inflamed joints: 1 point for an inflamed digit, 1 point for a inflamed metatarsus, and 1 point for an inflamed joint above the metatarsus.

Series [2] can be described thus: Pharmacokinetics of Compound 1 in mice, oral or intravenous. In kind it is in vivo. The conditions noted are these: C57BLK6 mice. As to the method: The cellulose formulation was administered to C57BLK6 mice orally. The serum suspension/solution was administered intravenously. […] The results are recorded in FIG. 5.
Series [3] has as its system experimental autoimmune encephalomyelitis. Description: Experimental autoimmune encephalomyelitis (EAE) in mice. Type of series: in vivo. To be noted: C57B/6 mice, 15 mg/kg i.p. once daily from EAE induction. As to the method: Control mice were treated with PEG/saline (triangles). […] Data are the mean plotted with the standard error of the mean.
EAE is a widely used animal model for multiple sclerosis (MS).
EAE was induced in C57B/6 mice by subcutaneous immunization with 100 ug/mouse myelin oligodendrocyte glycoprotein (MOG) peptide 35-55 emulsified in compete Freund's adjuvant (CFA) containing 2 mg/ml heat-killed mycobacterium tuberculosis H37Ra (Hooke Laboratories). As part of the induction protocol, mice were also injected intraperitoneally on the day of immunization and 48 hours later with 0.1 ml of 4 [mu]g/mL Bordetella pertusis toxin. Severity of EAE was determined daily based on a standard scoring system: 1, tail weakness or paralysis; 2, hind leg weakness; 3, hind limb paralysis; 4, forelimb weakness; and 5, moribund animals or death.

The text below walks through data of US20140142113A1 (priority 2012, published 2014).

For orientation: Ki means the dissociation constant of the complex between target and ligand, obtained from inhibition or displacement. Usually IC50 stands for the concentration needed to halve the response being measured. For orientation: half-life means the time in which the quantity being followed falls by half.

For `CCn1c(=O)[nH]c2nc(-c3ccc(S(=O)(=O)N4CCN(Cc5cccc(C(F)(F)F)c5)CC4)cc3)[nH]c2c1=O` [Compound 3], the inhibitory constant (Ki) turned out to be 509 ± 155 nM at rA1 adenosine receptor and 499 ± 129 nM on rA2A adenosine receptor. Moreover, on hA2B adenosine receptor, the IC50 is 2 ± 1 nM.

Regarding `CCCn1c(=O)[nH]c2nc(-c3ccc(S(=O)(=O)N4CCN(Cc5ccc(OC)cc5)CC4)cc3)[nH]c2c1=O` [Propyl-/p-Methoxybenzyl-], the Ki at rA1 adenosine receptor was 84 ± 19 nM; on rA2A adenosine receptor, 1020 ± 561 nM. Also, the IC50 on hA2B adenosine receptor is 16 ± 6 nM.

In the case of `CCCn1c(=O)[nH]c2nc(-c3ccc(S(=O)(=O)N4CCN(Cc5ccc6c(c5)OCO6)CC4)cc3)[nH]c2c1=O` [Propyl-/3,4-(Methylen-dioxy)benzyl-], the Ki amounted to 4.15 µM at hA3 adenosine receptor, 79 ± 5 nM at rA1 adenosine receptor and 590 ± 29 nM on rA2A adenosine receptor. In addition, the IC50 on hA2B adenosine receptor came out at 24 ± 10 nM.

Take `CCCn1c(=O)[nH]c2nc(-c3ccc(S(=O)(=O)N4CCN(Cc5ccc(C(F)(F)F)cc5)CC4)cc3)[nH]c2c1=O` [Compound 2]: the Ki at rA1 adenosine receptor turned out to be 463 ± 122 nM; on rA2A adenosine receptor, 1540 ± 271 nM. For the same compound, the IC50 on hA2B adenosine receptor was determined as 2 ± 1 nM.

Turning to `CCCn1c(=O)[nH]c2nc(-c3ccc(S(=O)(=O)N4CCN(Cc5ccc(Cl)cc5)CC4)cc3)[nH]c2c1=O` [Propyl-/p-Chlorbenzyl-], the results for the Ki on rA1 adenosine receptor and on rA2A adenosine receptor were 386 ± 98 nM and 1730 ± 790 nM, respectively. On hA2B adenosine receptor, the IC50 worked out at 4 ± 1 nM.

Regarding `CCCn1c(=O)[nH]c2nc(-c3ccc(S(=O)(=O)N4CCN(CCc5ccccc5)CC4)cc3)[nH]c2c1=O` [Propyl-/2-(Phenyl)ethyl-], the results for the Ki at hA3 adenosine receptor and on rA2A adenosine receptor were less than 10 µM and 154 ± 44.9 nM, respectively. The IC50 on hA2B adenosine receptor is 11 ± 3 nM.

Turning to `CCCn1c(=O)[nH]c2nc(-c3ccc(S(=O)(=O)N4CCN(Cc5cccc(C(F)(F)F)c5)CC4)cc3)[nH]c2c1=O` [Propyl-/m-Trifluormethylbenzyl-], the Ki at rA1 adenosine receptor came out at 273 ± 47 nM; at rA2A adenosine receptor it was 1700 ± 217 nM. Besides, on hA2B adenosine receptor, the IC50 was found to be 4 ± 0.2 nM.

Turning to `CCn1c(=O)[nH]c2nc(-c3ccc(S(=O)(=O)N4CCN(Cc5ccc(OC)cc5)CC4)cc3)[nH]c2c1=O` [Ethyl-/p-Methoxybenzyl-], the inhibition constant (Ki) is less than 10 µM on hA3 adenosine receptor, 129 ± 41 nM on rA1 adenosine receptor and 630 ± 305 nM on rA2A adenosine receptor. The 50% inhibitory concentration (IC50) at hA2B adenosine receptor was determined as 5 ± 1 nM.

Consider `CCn1c(=O)[nH]c2nc(-c3ccc(S(=O)(=O)N4CCN(Cc5ccc6c(c5)OCO6)CC4)cc3)[nH]c2c1=O` [Ethyl-/3,4-(Methylen-dioxy)benzyl-], for which the Ki on hA3 adenosine receptor was less than 10 µM; at rA1 adenosine receptor it was 54 ± 5 nM; at rA2A adenosine receptor, 332 ± 129 nM. Further, the IC50 at hA2B adenosine receptor amounted to 5 ± 2 nM.

Take `CCCn1c(=O)[nH]c2nc(-c3ccc(S(=O)(=O)N4CCN(Cc5cccc(Cl)c5)CC4)cc3)[nH]c2c1=O` [Compound 4]: the Ki on rA1 adenosine receptor turned out to be 178 ± 38 nM; at rA2A adenosine receptor, 799 ± 358 nM. Besides, the IC50 on hA2B adenosine receptor was determined as 2 ± 0.1 nM.

Regarding `CCCn1c(=O)[nH]c2nc(-c3ccc(S(=O)(=O)N4CCN(Cc5cccc(F)c5)CC4)cc3)[nH]c2c1=O` [Compound 5], the inhibition constant (Ki) at rA1 adenosine receptor turned out to be 111 ± 43 nM; on rA2A adenosine receptor, 782 ± 236 nM. Also, at hA2B adenosine receptor, the IC50 was 3 ± 0.2 nM.

Regarding `CCCn1c(=O)[nH]c2nc(-c3ccc(S(=O)(=O)N4CCN(Cc5ccccc5)CC4)cc3)[nH]c2c1=O` [Propyl-/Benzyl-], the inhibition constant (Ki) on hA3 adenosine receptor is greater than 10 µM; at rA1 adenosine receptor, 151 ± 38 nM; on rA2A adenosine receptor, 848 ± 433 nM. Moreover, the IC50 on hA2B adenosine receptor was 10 ± 2 nM.

For the compound `CCCn1c(=O)[nH]c2nc(-c3ccc(S(=O)(=O)N4CCN(c5ccc(Cl)cc5)CC4)cc3)[nH]c2c1=O` [Compound 1], the Ki on hA3 adenosine receptor is greater than 10 µM. The “effect on existing inflammation in CIA” value in series [1] (established arthritis) is listed as “able to reduce an existing inflammation to a normal state”. The “severity of CIA (paw swelling, erythema, joint rigidity; mean visual arthritis score)” value in series [1] (started after development of clinical arthritis) was “significant reductions in the severity of CIA”. Moreover, in series [2] (oral or intravenous route), the “detectability in blood by route” value is reported as “detectable only via injection”. Besides, in series [2] (oral, 1% methyl cellulose in water, 0.2% Tween 80), the oral availability result is “not orally available”. Also, the half-life in series [2] (whole blood, iv, i.v. application in mouse serum, read-out: terminal half life) lay in the range of 60 to 120 min. For the same compound, at hA2B adenosine receptor, the IC50 came to 1 ± 0.4 nM. The “onset of EAE compared to control mice” value in series [3] (15 mg/kg) is “delayed onset such that there were no signs of EAE”; in series [3] (listed as compound 1, 15 mg/kg), “a delay in the onset of EAE”.

`CCn1c(=O)[nH]c2nc(-c3ccc(S(=O)(=O)N4CCN(c5ccccc5)CC4)cc3)[nH]c2c1=O` [Ethyl-/Phenyl-]: the Ki is greater than 10 µM on hA3 adenosine receptor, 142 ± 6 nM at rA1 adenosine receptor and 514 ± 41 nM on rA2A adenosine receptor. For the same compound, the IC50 on hA2B adenosine receptor stood at 4 ± 3 nM.
